Measured values as given in patent US12036319B2, “Polyvalent sting activating compositions and uses thereof” (The Board of Regents of the University of Texas System, priority 2020, dated 2024).

Key:
[1] = test system: B16-F10 melanoma tumor model; test: Interferon-stimulated gene expression in B16-F10 tumor-bearing mice; assay type: in vivo, mouse
Experimental: RT-qPCR. […] Results were corrected by β-actin or GAPDH.
Mice were subcutaneously inoculated with B16F10 melanoma cells (1.0×10^5) or TC-1 cells (1.0×10^5) into the right flank. […] Mice were euthanized one-day post-injection, and tumors and draining lymph nodes were collected. Total RNAs were extracted by TRIzol (Invitrogen), and the expressions of interferon-stimulated genes (ifn-β, cxcl10, tnf-α, and irf7) were measured via RT-qPCR.

STING = test: Time course of STING puncta, signaling and degradation in GFP-STING MEF and THP1 cells; assay type: cell-based
Text: (§1) Microscopy. […] In STING degradation assay, LysoTracker Red DND-99 (Thermo Scientific) was used to stain lysosomes in live cells. […] Samples were mounted in prolong gold antifade with Dapi stain (Thermo Scientific) and imaged using a Zeiss 700 confocal laser scanning microscope with a 63× oil objective. ImageJ was used to quantify co-localization by Pearson's correlation coefficient. Data are representative of at least twenty cells.
Western blot analysis. […] Briefly, cells were lysed in SDS sample buffer (with protease and phosphatase inhibitor cocktail) and heated for denaturation. […] Electro transfer was performed using 100 V for 60 min on ice. After transfer, the membrane was blocked either in 5% non-fat milk or BSA (phosphorylated protein) for 1 h at room temperature, and incubated with primary antibody overnight at 4° C. HRP-linked secondary antibody (Bio-Rad) was used for 1 h at room temperature before detection on X-ray film (GE Healthcare). Membrane was stripped in stripping buffer for 30 min and reused for […] (Sigma Aldrich) detection.
(§2) RT-qPCR. Total RNAs were extracted from cells or human tissues by using RNeasy mini kit (QIAGEN). RNA quantity and quality were confirmed using NanoDrop (DeNovix DS-11). Genomic DNA was removed and cDNA was synthesized using an iScript™ gDNA clear cDNA synthesis kit (Bio-Rad). Bio-Rad SoAdvanced™ universal SYBR green supermix and CFX connect real-time system were used for PCR analysis. Results were corrected by β-actin or GAPDH. DNA primers are listed as follows: • Mouse ifn-β: […]

[2] = test system: resected human tissues (squamous cell carcinoma from the base of tongue, cervical tumor tissues, sentinel lymph node); test: STING activation in freshly resected human tissues; settings: ex vivo injection, 24 h at 37° C.; cGAMP 80 ng, PC7A 50 μg
Text: as §2

[3] = test system: mutant STING-GFP in HEK293T cells; test: Downstream STING activation in HEK293T cells transfected with mutant STING plasmids; assay type: cell-based, human
Text: (§3) WT or R232H THP-1 reporter cells were purchased from Invitrogen.
as §1, §2

TC-1 tumors = test: Tumor therapy, TC-1 tumor model; assay type: in vivo, mouse; settings: TC-1, intratumoral, four injections, versus 5% glucose
Experimental: Tumor therapy experiments. Mice were subcutaneously inoculated with MC38 cells (1.0×10^6) or TC-1 cells (1.0×10^5) into the right flank. Tumor size was measured every other day via a digital caliper, and tumor volume was calculated as 0.5×length×width^2. […] Mice were injected 3× in MC38 model and 4× in TC-1 model with treatments spaced 4 d apart. Mice were euthanized at a tumor burden endpoint of 2,000 mm^3.

[4] = test system: STING R232H variant in THP1 cells; test: IFN-β-Luc expression in THP1 cells harboring STING R232H; assay type: cell-based, human
Text: as §3

Nc1nc2c(ncn2[C@@H]2O[C@@H]3COP(=O)(O)OC4C(O)[C@H](n5cnc6c(N)ncnc65)O[C@@H]4COP(=O)(O)OC2C3O)c(=O)[nH]1 (stereo partly drawn) [cGAMP, cyclic guanosine monophosphate-adenosine monophosphate]
STING activation in draining lymph nodes ([1]; intratumoral injection, cGAMP high dose 2.5 μg): minimal STING activation
interferon-stimulated gene expression (ifn-β, cxcl10, tnf-α, irf7) in tumor ([1]; single intratumoral injection, 24 hours, PC7A 50 μg, cGAMP low dose 0.5 μg): failed to induce interferon-stimulated gene expressions
time of peak immune response after stimulation (STING): around 6 h
time to STING degradation (STING; STING-GFP MEFs): ≤ 12 h
p-TBK1/p-IRF3 production and proinflammatory cytokine expression (STING; in the presence of brefeldin A (BFA, 10 μM)): fail to trigger p-TBK1/p-IRF3 production and proinflammatory cytokine expression
ifn-β and cxcl10 mRNA expression over control [2]: marginal effect
condensate structures, TBK1 phosphorylation and ifn-β/cxcl10 expression [3]: did not impact cGAMP-mediated STING activation
extension of median survival (TC-1 tumors): 4 days
IFN-β-Luc expression [4]: abrogated
